Values of other authors in US9044449B2, “X-ray contrast media compositions and methods of using the same to treat, reduce or delay the onset of CNS inflammation and inflammation associated conditions” (3E THERAPEUTICS CORPORATION, priority 2011, dated 2015).
Residues, ends and D or L forms follow the SMILES beside them.

Columns and labels:
TNF-alpha = details: in vitro
mast cell degranulation = details: in vitro; immunological and non-immunological stimuli
[1] = test system: allergen induced nasal obstruction; details: used as a nasal spray, in vivo
[2] = target: angiotensin converting enzyme (ACE) (Homo sapiens, UniProt P12821); details: in vitro; FIG. 2 reproduced from Lasser et al. 1990
Chain of angiotensin converting enzyme (ACE) (P12821 30-1306, species assumed): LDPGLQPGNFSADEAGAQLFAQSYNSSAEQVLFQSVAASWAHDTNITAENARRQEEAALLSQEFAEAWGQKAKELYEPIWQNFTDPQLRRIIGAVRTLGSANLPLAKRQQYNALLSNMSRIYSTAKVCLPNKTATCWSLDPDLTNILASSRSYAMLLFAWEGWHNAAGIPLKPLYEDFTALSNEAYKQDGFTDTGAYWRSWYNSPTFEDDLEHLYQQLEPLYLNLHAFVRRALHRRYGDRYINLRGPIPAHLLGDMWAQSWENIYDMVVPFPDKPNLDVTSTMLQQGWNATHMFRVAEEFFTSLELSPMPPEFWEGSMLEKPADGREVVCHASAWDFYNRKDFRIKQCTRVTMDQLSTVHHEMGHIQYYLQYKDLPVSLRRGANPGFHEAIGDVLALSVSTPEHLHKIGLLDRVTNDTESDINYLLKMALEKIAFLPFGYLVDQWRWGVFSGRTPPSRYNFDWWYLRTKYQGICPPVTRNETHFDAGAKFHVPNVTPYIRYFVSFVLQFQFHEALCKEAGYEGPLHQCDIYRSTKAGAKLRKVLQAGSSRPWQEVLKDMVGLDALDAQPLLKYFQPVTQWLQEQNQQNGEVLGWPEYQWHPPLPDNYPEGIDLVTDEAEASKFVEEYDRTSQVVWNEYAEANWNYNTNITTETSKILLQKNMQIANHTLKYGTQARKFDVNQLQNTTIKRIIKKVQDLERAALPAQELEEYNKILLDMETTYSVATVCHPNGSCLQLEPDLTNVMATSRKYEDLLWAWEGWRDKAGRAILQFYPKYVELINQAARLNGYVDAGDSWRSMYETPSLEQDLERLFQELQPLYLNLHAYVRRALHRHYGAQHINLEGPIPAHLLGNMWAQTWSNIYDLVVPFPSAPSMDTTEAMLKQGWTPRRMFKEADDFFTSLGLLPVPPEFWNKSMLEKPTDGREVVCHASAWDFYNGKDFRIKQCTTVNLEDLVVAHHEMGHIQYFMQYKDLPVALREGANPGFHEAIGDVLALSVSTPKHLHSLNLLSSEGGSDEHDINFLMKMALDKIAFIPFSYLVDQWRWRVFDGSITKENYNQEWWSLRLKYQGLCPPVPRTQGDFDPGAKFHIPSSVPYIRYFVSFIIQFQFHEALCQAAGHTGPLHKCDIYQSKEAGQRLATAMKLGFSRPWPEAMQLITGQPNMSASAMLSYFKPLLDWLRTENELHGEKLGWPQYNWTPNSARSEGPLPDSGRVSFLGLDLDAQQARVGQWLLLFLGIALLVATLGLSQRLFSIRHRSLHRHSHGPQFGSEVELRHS

## CCCc1c2oc(C(=O)[O-])cc(=O)c2cc2c(=O)cc(C(=O)[O-])n(CC)c12.[Na+].[Na+] [nedocrimal sodium]
TNF-alpha
  inhibition of TNF-alpha: inhibited TNF-alpha in vitro

## O=C(O)c1cc(=O)c2c(OCC(O)COc3cccc4oc(C(=O)O)cc(=O)c34)cccc2o1 [Sodium cromoglycate]
TNF-alpha
  inhibition of TNF-alpha: inhibited TNF-alpha in vitro

## CC(=O)N[C@@H](CC(=O)[O-])C(=O)N[C@@H](CCC(=O)[O-])C(=O)O.[Mg+2] [magnesium salt of n-acetyl aspartyl glutamic acid] (Ac-Asp-Glu-OH)
Mast cell degranulation
  inhibition of mast cell degranulation: inhibit mast cell degranulation
[1]
  effect on allergen induced nasal obstruction: reduce allergen induced nasal obstruction

## C[C@H](O)C(=O)Nc1c(I)c(C(=O)NC(CO)CO)c(I)c(C(=O)NC(CO)CO)c1I [purified iopamidol, iopamidol]
[2]
  inhibition of ACE compared with commercial iopamidol (contains chelator): diminishes the inhibition ACE significantly
